# Columns and labels:
# Type in all cases: cell-based
# Human 5-HT2A Receptor [1] = biological target: T1, Human 5-HT2A Receptor (Homo sapiens, UniProt P28223); assay: Serotonin receptor inositol phosphate 1 (IP1) assay (Multispan); conditions: 5-HT 2a receptor; reference 1 μM serotonin; FIG. 2
# T1 construct: host or cells: CHO-K1
# Procedure: (§1) Compounds 018 and 019 were assayed using a serotonin (2a, 2b and 2c receptors) inositol phosphate 1 (IP1) assay, provided by Multispan. The reference used was 1 μM serotonin to calculate the percentage relative response. The results can be seen in FIG. 2. Both compounds appear to some activity against all three target receptors in this assay.
# (§2) IP-One Gq kit—cisbio—cat. No. 62IPAPEB
# (§3) MULTISCREEN™ CHO-K1 Cell Line Stably Expressing Human 5-HT2A Receptor, Catalog DC1324-1
# Human 5-HT2B Receptor = biological target: T2, Human 5-HT2B Receptor (Homo sapiens, UniProt P41595); assay: as above; conditions: 5-HT 2b receptor; reference 1 μM serotonin; FIG. 2
# T2 construct: host or cells: CHO-K1
# Procedure: as §1, §2
# MULTISCREEN™ CHO-K1 Cell Line Stably Expressing Human 5-HT2B Receptor, Catalog DC1325-1
# Human 5-HT2C Receptor [2] = biological target: T3, Human 5-HT2C Receptor (Homo sapiens, UniProt P28335); assay: as above; conditions: 5-HT 2c receptor; reference 1 μM serotonin; FIG. 2
# T3 construct: host or cells: CHO-K1
# T3 sequence (P28335 33-458): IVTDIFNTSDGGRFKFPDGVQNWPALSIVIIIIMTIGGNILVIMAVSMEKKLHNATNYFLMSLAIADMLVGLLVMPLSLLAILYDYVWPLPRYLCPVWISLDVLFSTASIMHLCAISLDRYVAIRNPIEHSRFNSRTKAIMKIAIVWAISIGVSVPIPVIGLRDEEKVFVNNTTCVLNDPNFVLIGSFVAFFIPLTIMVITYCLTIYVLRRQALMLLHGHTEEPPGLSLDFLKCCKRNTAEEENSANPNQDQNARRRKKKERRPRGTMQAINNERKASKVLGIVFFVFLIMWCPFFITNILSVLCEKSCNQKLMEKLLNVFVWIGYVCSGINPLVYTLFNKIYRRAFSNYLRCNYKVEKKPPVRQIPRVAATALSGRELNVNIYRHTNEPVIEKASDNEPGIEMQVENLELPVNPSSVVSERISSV
# Procedure: as §1, §2
# (§4) MULTISCREEN™ CHO-K1 Cell Line Stably Expressing Human 5-HT2C Receptor, Catalog DC1326-1
# Human 5-HT2A Receptor [3] = biological target: T1, Human 5-HT2A Receptor; assay: Serotonin receptor calcium (Ca2+) assay (Multispan, FLIPR); conditions: 5-HT 2a receptor; reference 10 μM serotonin; FIG. 3
# Procedure: (§5) Compounds 018 and 019 were assayed using a serotonin (2a, 2b and 2c receptors) calcium (Ca^2+) assay, provided by Multispan. The reference used was 10 μM serotonin to calculate the percentage relative response in relative light units (RLU). The results can be seen in FIG. 3. Both compounds have some activity against the 2a and 2c receptors.
# (§6) FLIPR calcium 6 assay explorer kit—VWR—cat. No. MLDVR8190
# as §3
# Human 5-HT2C Receptor [4] = biological target: T3, Human 5-HT2C Receptor; assay: as above; conditions: 5-HT 2c receptor; reference 10 μM serotonin; FIG. 3
# Procedure: as §5, §6, §4
# HTR1A = biological target: T4, HTR1A (Homo sapiens, UniProt P08908); assay: Serotonin receptor B-arrestin assay (DiscoverX PathHunter); conditions: 5-HT 1a receptor; reference 10 μM serotonin; FIG. 4
# T4 construct: host or cells: CHO-K1
# T4 sequence (P08908 1-422): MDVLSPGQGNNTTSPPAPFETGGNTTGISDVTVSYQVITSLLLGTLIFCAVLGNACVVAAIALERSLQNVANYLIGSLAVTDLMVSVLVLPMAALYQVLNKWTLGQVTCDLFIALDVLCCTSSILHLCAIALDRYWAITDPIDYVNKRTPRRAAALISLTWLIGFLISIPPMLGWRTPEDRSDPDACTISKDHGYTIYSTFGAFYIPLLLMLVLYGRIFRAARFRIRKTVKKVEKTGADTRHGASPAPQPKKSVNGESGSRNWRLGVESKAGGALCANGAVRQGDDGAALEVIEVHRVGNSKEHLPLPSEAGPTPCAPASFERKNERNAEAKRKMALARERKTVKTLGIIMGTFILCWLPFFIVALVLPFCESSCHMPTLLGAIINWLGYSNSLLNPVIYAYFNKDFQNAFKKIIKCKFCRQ
# Procedure: (§7) Compounds 018 and 019 were assayed using a serotonin (1a, 1b, 2a and 2c receptors) B-arrestin assay, provided by DiscoverX. The reference used was 10 μM serotonin to calculate the percentage relative response. The results can be seen in FIG. 4.
# (§8) For the B-arrestin assays the cells came with the kits apart from the 2b receptor assay (Valiscreen serotonin 5HT-26 (human) cell line—ES-314-C, Perkin Elmer).
# HTR1B = biological target: T5, HTR1B (Homo sapiens, UniProt P28222); assay: as above; conditions: 5-HT 1b receptor; reference 10 μM serotonin; FIG. 4
# T5 construct: host or cells: U2OS
# Procedure: as §7, §8
# HTR2A = biological target: T6, HTR2A (Homo sapiens, UniProt P28223); assay: as above; conditions: 5-HT 2a receptor; reference 10 μM serotonin; FIG. 4
# T6 construct: host or cells: U2OS
# Procedure: as §7, §8
# HTR2C = biological target: T7, HTR2C (Homo sapiens, UniProt P28335); assay: as above; conditions: 5-HT 2c receptor; reference 10 μM serotonin; FIG. 4
# T7 construct: host or cells: U2OS
# T7 sequence (P28335 33-458): T3 sequence (P28335 33-458)
# Procedure: as §7, §8
# Human 5-HT1A Receptor = biological target: T8, Human 5-HT1A Receptor (Homo sapiens, UniProt P08908); assay: Serotonin receptor cAMP assay (Multispan, HTRF); conditions: 5-HT 1a receptor; reference 10 μM forskolin, serotonin control; FIG. 1
# T8 construct: host or cells: HEK293T
# T8 sequence (P08908 1-422): T4 sequence (P08908 1-422)
# Procedure: (§9) Compounds 018 (above, left) and 019 (above, right) were assayed using a serotonin (1a, 1b, 2a, 2c and 7 receptors) cAMP assay, provided by Multispan. The reference used was 10 μM forskolin (a cAMP activator) to calculate the percentage relative response, serotonin was used as the control. The results can be seen in FIG. 1. Compound 019 was active against in all other receptor assays.
# (§10) cAMP Gs dynamic kit—cisbio—cat. No. 62AM4PEC
# MULTISCREEN™ HEK293T Cell Line Stably Expressing Human 5-HT1A Receptor, Catalog DC1319a
# Human 5-HT1B Receptor = biological target: T9, Human 5-HT1B Receptor (Homo sapiens, UniProt P28222); assay: Serotonin receptor cAMP assay (Multispan, HTRF); conditions: 5-HT 1b receptor; reference 10 μM forskolin, serotonin control; FIG. 1
# T9 construct: host or cells: HEK293T
# Procedure: as §9, §10
# MULTISCREEN™ HEK293T Cell Line Stably Expressing Human 5-HT1B Receptor, Catalog DC1320a
# MULTISCREEN™ HEK293T Cell Line Stably Expressing Human 5HT1B Receptor, Catalog DC1320a
# Human 5-HT2A Receptor [5] = biological target: T1, Human 5-HT2A Receptor; assay: Serotonin receptor cAMP assay (Multispan, HTRF); conditions: 5-HT 2a receptor; reference 10 μM forskolin, serotonin control; FIG. 1
# Procedure: as §9, §10, §3
# Human 5-HT2C Receptor [6] = biological target: T3, Human 5-HT2C Receptor; assay: Serotonin receptor cAMP assay (Multispan, HTRF); conditions: 5-HT 2c receptor; reference 10 μM forskolin, serotonin control; FIG. 1
# Procedure: as §9, §10, §4
# Human 5-HT7 Receptor = biological target: T10, Human 5-HT7 Receptor (Homo sapiens, UniProt P34969); assay: Serotonin receptor cAMP assay (Multispan, HTRF); conditions: 5-HT 7 receptor; reference 10 μM forskolin, serotonin control; FIG. 1
# T10 construct: host or cells: HEK293T
# Procedure: as §9, §10
# MULTISCREEN™ HEK293T Cell Line Stably Expressing Human 5-HT7 Receptor, Catalog DC1334
# T1 sequence (P28223 whole entry): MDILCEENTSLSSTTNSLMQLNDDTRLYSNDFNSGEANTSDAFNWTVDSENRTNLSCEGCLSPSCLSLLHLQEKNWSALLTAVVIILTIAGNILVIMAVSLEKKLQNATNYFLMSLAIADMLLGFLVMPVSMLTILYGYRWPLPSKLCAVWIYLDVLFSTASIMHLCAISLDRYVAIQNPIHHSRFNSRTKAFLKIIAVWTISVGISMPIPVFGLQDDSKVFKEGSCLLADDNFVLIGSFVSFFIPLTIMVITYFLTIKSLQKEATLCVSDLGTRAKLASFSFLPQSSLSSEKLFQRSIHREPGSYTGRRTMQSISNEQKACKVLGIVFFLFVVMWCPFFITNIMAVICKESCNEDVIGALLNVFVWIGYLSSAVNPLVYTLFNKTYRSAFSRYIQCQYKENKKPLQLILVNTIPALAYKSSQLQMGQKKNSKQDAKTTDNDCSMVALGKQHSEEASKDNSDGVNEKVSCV
# T5 sequence (P28222 whole entry): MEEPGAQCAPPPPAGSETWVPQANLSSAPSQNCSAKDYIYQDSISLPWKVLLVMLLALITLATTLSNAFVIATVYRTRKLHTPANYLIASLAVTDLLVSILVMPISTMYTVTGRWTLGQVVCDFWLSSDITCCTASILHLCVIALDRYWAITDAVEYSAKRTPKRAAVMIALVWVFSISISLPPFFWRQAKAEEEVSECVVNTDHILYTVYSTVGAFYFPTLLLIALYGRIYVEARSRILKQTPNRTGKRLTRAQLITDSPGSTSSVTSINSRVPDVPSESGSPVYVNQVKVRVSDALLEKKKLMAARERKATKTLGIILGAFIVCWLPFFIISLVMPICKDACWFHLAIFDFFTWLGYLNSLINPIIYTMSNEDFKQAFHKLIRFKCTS
# T2 sequence (P41595 whole entry): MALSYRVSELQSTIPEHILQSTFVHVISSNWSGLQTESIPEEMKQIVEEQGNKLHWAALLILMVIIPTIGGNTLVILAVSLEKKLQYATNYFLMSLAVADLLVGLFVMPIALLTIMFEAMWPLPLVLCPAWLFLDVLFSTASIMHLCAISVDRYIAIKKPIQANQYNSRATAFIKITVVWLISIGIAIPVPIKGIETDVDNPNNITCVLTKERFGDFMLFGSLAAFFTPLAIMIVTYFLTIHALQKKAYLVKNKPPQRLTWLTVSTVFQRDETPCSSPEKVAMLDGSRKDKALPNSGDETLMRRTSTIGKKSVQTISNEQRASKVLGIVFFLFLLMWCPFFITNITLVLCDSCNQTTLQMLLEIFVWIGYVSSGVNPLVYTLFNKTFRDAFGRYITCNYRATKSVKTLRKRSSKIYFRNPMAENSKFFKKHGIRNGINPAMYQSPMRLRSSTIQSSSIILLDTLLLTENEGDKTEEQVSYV
# T6 sequence (P28223 whole entry): as the sequence (P28223 whole entry) above
# T9 sequence (P28222 whole entry): as the sequence (P28222 whole entry) above
# T10 sequence (P34969 whole entry): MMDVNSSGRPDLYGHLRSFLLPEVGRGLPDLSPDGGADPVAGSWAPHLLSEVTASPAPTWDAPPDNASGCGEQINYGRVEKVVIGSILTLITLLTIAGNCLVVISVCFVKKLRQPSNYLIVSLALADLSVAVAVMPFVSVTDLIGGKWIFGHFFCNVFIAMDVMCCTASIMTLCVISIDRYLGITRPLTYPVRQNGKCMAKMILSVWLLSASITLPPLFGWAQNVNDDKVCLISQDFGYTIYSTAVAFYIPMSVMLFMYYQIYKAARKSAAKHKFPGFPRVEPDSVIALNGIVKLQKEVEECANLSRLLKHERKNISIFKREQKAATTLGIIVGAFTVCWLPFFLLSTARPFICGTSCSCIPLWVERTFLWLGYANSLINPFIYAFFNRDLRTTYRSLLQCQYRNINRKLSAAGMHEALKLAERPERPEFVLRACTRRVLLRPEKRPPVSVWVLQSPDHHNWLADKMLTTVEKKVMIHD
SMILES,IP1 assay activity (Human 5-HT2A Receptor [1]),IP1 assay activity (Human 5-HT2B Receptor),IP1 assay activity (Human 5-HT2C Receptor [2]),Calcium (Ca2+) assay activity (Human 5-HT2A Receptor [3]),Calcium (Ca2+) assay activity (Human 5-HT2C Receptor [4]),B-arrestin assay activity (HTR1A),B-arrestin assay activity (HTR1B),B-arrestin assay activity (HTR2A),B-arrestin assay activity (HTR2C),cAMP assay activity (Human 5-HT1A Receptor),cAMP assay activity (Human 5-HT1B Receptor),cAMP assay activity (Human 5-HT2A Receptor [5]),cAMP assay activity (Human 5-HT2C Receptor [6]),cAMP assay activity (Human 5-HT7 Receptor)
"CCCCCN(C(=O)[C@@H]1C=C2c3cccc4[nH]cc(c34)C[C@H]2N(C)C1)C(C)C [Compound 018, (4R,6R,7R)-6-methyl-4-[pentyl(propan-2-yl)carbamoyl]-6,11-diazatetra-cyclo[7.6.1.0^2,^7.0^12,^16] hexadeca-1(16),2,9,12,14-pentaen-6-ium]",some activity,some activity,some activity,some activity,some activity,some activity,some activity,some activity,some activity,,,,,
"CC(C)NC(=O)[C@@H]1C=C2c3cccc4[nH]cc(c34)C[C@H]2N(C)C1 [Compound 019, (4R,6R,7R)-6-methyl-4-[(propan-2-yl)carbamoyl]-6,11-diazatetra-cyclo[7.6.1.0^2,^7^7.0^12,^16] hexadeca-1(16),2,9,12,14-pentaen-6-ium]",some activity,some activity,some activity,some activity,some activity,some activity,some activity,some activity,some activity,active,active,stimulates the 5HT2aR leading to downstream activation of cAMP,active,active
